# Assay results published in patent US20030013883A1, “Tropane analogs binding to monoamine transporters” (priority 2000, published 2003).
# pKi: −log10 of the molar value. Where two headings read alike, the source gives them in different places.
# What was measured:
# [1] = target: T1, norepinephrine transporter (NET) (Rattus norvegicus, UniProt Q63380); test: Radioligand binding to norepinephrine transporter, [3H]nisoxetine, rat cerebral cortex homogenate
# T1 construct: from tissue; host or cells: rat cerebral cortex
# Excerpt: (§1) 30: 89-92, 1990; Andersen, P. H., J. Neurochem. 48:1887-1896, 1987).
# [2] = target: dopamine transporter (DAT) (Rattus norvegicus, UniProt P23977); test: Radioligand binding to dopamine transporter, [3H]GBR-12935, rat corpus striatum homogenate;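 also: displacement read as filter-bound tritium by liquid scintillation counting, roughly 1 mg wet tissue per tube, IC50 from fitted concentration-inhibition curves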
# Experimental: For DAT assays, corpus striatum tissue from rat forebrain was rapidly dissected on ice, pooled, weighed, and homogenized at 30 mg/mL in cold DAT buffer (50 mM Tris citrate, pH 7.4, 120 mM NaCl, 4 mM MgCl2) and stored at −70° C. The pellet was suspended in the assay buffer to provide the equivalent of about 1 mg of wet weight per assay tube.
# L=400 pM) and 1.0 μM GBR-12909 (Research Biochemicals International, Natick, Mass.) as blank (Kula, N. S. et al., Neuropharmacology.
# Assay tubes were incubated at room temperature for 120 min (SERT) or on ice for 180 min (NET) or 45 min (DAT). Labeled tissue samples were recovered in a Brandel Cell Harvester on glass fiber filter sheets saturated with 0.3% (v/v) aqueous polyethyleneimine, washed with ice-cold 0.9% NaCl, and counted for tritium in a liquid scintillation counter. Concentration-inhibition curves were computer-fit to determine IC50±SEM and converted to Ki values in nM from the Cheng -Prusoff relationship Ki=IC50/(1+[L]/Kd).
# [3] = target: T2, serotonin transporter (SERT) (Rattus norvegicus, UniProt P31652); test: Radioligand binding to serotonin transporter, [3H]paroxetine, rat cerebral cortex homogenate; conditions: for Selectivity for SERT: ratio of Ki for NET or DAT to that for SERT (values match DAT/SERT), larger number is more selective for SERT
# T2 construct: For SERT and NET assays, rat cerebral cortex was homogenized in cold SERT assay buffer; from tissue; host or cells: rat cerebral cortex
# Excerpt: as §1
# [4] = rat cerebral cortex membranes, [3H]nisoxetine 600 pM, on ice 180 min, Ki from IC50 by Cheng-Prusoff, read-out: NET (Ki)
# [5] = read-out: DAT (Ki), rat corpus striatum membranes, [3H]GBR-12935 400 pM, on ice 45 min, Ki from IC50 by Cheng-Prusoff
# [6] = rat cerebral cortex membranes, [3H]paroxetine 200 pM, room temperature 120 min, Ki from IC50 by Cheng-Prusoff, read-out: SERT (Ki)
# Chain of dopamine transporter (DAT) (P23977 whole entry): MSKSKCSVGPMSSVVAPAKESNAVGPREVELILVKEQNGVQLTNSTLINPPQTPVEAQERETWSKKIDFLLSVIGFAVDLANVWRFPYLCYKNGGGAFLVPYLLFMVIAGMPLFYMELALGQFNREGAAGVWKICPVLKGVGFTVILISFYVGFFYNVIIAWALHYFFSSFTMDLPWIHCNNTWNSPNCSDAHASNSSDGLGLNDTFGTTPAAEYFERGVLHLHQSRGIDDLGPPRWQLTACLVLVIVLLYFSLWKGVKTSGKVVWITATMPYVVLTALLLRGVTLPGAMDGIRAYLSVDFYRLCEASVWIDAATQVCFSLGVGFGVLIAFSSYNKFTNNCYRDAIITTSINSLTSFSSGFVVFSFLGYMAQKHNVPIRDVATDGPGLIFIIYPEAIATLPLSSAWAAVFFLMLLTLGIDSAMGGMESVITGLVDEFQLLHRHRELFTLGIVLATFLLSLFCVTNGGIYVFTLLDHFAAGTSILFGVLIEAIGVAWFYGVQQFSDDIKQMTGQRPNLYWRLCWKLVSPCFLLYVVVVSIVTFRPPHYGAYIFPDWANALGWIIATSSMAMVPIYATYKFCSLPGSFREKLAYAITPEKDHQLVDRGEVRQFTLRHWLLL
# T1 sequence (Q63380 1-617): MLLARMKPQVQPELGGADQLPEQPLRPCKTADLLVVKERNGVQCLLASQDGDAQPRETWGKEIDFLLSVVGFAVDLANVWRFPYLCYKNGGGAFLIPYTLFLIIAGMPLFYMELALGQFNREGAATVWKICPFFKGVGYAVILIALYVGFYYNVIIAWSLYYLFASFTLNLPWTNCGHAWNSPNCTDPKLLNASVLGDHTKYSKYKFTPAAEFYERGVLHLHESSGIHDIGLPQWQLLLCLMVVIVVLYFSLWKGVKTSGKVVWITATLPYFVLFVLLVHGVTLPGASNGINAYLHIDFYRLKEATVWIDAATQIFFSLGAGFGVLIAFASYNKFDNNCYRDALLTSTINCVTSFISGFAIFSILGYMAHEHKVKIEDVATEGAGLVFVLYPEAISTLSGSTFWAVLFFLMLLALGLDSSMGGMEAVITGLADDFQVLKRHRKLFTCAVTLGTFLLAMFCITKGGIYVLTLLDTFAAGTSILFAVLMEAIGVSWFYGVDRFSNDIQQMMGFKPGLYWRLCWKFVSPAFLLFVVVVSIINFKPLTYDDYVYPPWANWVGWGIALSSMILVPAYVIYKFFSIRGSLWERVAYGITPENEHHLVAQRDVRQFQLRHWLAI
# T2 sequence (P31652 whole entry): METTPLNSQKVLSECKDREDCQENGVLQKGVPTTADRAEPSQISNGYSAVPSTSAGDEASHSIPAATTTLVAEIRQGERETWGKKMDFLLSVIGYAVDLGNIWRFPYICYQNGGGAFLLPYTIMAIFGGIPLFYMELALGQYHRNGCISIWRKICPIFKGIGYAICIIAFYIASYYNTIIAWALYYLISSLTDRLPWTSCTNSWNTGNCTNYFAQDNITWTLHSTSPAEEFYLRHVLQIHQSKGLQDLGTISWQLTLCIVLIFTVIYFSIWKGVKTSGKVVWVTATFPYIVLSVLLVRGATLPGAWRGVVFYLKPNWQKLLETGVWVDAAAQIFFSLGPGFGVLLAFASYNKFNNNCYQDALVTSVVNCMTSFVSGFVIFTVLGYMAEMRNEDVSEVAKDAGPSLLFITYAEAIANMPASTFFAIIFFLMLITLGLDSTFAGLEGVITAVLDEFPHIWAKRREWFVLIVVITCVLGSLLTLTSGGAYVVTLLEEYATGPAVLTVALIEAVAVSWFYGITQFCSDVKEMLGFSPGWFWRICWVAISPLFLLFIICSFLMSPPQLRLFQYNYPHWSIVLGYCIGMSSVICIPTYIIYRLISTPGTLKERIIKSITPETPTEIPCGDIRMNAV
SMILES,"pKi [1, 4]","pKi [2, 5]","pKi [3, 6]",Selectivity for SERT [3],pKi ([3]; read-out: SERT (Ki)),pKi [2],melting point,pKi [3],pKi [1]
COC(=O)C1C(c2ccc(-c3cccc(O)c3)cc2)CC2CCC1N2C (centres unmarked) [Compound 2],6.81,7.82,,,,,,,
COC(=O)C1C(c2ccc(-c3ccccc3OC)cc2)CC2CCC1N2C (centres unmarked) [Compound 3a],< 5.00,6.45,,,,,,,
COC(=O)C1C(c2ccc(-c3cccc(OC)c3)cc2)CC2CCC1N2C (centres unmarked) [Compound 3b],< 5.52,7.23,8.72,31.1,,,,,
COC(=O)C1C(c2ccc(-c3ccc(OC)cc3)cc2)CC2CCC1N2C (centres unmarked) [Compound 3c],6.45,7.88,7.49,0.41,,,,,
COC(=O)C1C(c2ccc(-c3ccccc3[N+](=O)[O-])cc2)CC2CCC1N2C (centres unmarked) [Compound 4a],< 5.52,,,1,,,,,
COC(=O)C1C(c2ccc(-c3cccc([N+](=O)[O-])c3)cc2)CC2CCC1N2C (centres unmarked) [Compound 4b],6.02,8.02,9.10,11.9,,,,,
COC(=O)C1C(c2ccc(-c3ccc([N+](=O)[O-])cc3)cc2)CC2CCC1N2C (centres unmarked) [Compound 4c],6.43,8.29,7.53,0.17,,,,,
COC(=O)C1C(c2ccc(-c3cccc(N)c3)cc2)CC2CCC1N2C (centres unmarked) [Compound 5],6.18,7.62,,,,,,,
COC(=O)C1C(c2ccc(-c3ccccc3C(C)=O)cc2)CC2CCC1N2C (centres unmarked) [Compound 6a],< 4.70,5.99,,,,,,,
COC(=O)C1C(c2ccc(-c3cccc(C(C)=O)c3)cc2)CC2CCC1N2C (centres unmarked) [Compound 6b],< 4.30,7.91,,,,,,,
COC(=O)C1C(c2ccc(-c3ccc(C(C)=O)cc3)cc2)CC2CCC1N2C (centres unmarked) [Compound 6c],6.12,7.72,,,,,,,
"COC(=O)[C@H]1[C@@H](c2ccc(-c3cccc(CNC(=O)OC(C)(C)C)c3)cc2)C[C@@H]2CC[C@H]1N2C [Compound 7, 3β-[3′-(tert-Butoxycarbonylaminomethyl)biphenyl-4-yl]-Tropane-2β-carboxylic acid methyl ester]",< 4.52,,,1,< 5.00,< 5.00,,,
COC(=O)C1C(c2ccc(-c3cccc(C(=O)c4ccccc4)c3)cc2)CC2CCC1N2C (centres unmarked) [Compound 8],< 5.52,,,1,< 5.52,< 5.52,,,
COC(=O)C1C(c2ccc(-c3cccc(C4OCCO4)c3)cc2)CC2CCC1N2C (centres unmarked) [Compound 9],< 4.52,,,0.03,< 5.00,6.44,,,
"COC(=O)C1C2CCC(CC1c1ccc(-c3cccc(OC)c3)cc1)N2 (stereo not drawn) [Compound 10, 3β-(3′-methoxybiphenyl-4-yl)nortropane-2β-carboxylic acid methyl ester]",6.53,,,306,8.63,6.15,102 to 104 °C,,
"COC(=O)[C@H]1[C@@H](c2ccc(-c3cccs3)cc2)C[C@@H]2CC[C@H]1N2C [Compound 11, 3β-(4-Thiophen-2-yl-phenyl)tropane-2β-carboxylic acid methyl ester]",,,,346,,7.28,,9.82,6.80
"COC(=O)[C@H]1[C@@H](c2ccc(-c3ccsc3)cc2)C[C@@H]2CC[C@H]1N2C [Compound 12, 3β-(4-Thiophen-3-yl-phenyl)tropane-2β-carboxylic acid methyl ester]",,,,711,,7.92,,9.77,6.72
COC(=O)C1C(c2ccc(-c3ccco3)cc2)CC2CCC1N2C (centres unmarked) [Compound 13],,8.15,8.95,6.32,,,,,5.85
"COC(=O)[C@H]1[C@@H](c2ccc(-c3nccs3)cc2)C[C@@H]2CC[C@H]1N2C [Compound 14, 3β-(4-Thiazol-2-yl-phenyl)tropane-2β-carboxylic acid methyl ester]",,,,310,,6.28,,8.78,< 5.00
COC(=O)C1C(c2ccc(-c3ccccn3)cc2)CC2CCC1N2C (centres unmarked) [Compound 15],≤ 5.00,7.36,6.79,0.27,,,,,
COC(=O)C1C(c2ccc(-c3cccnc3)cc2)CC2CCC1N2C (centres unmarked) [Compound 16],5.85,,8.45,7.3,,7.58,,,
"COC(=O)C1C2CCC(CC1c1ccc(-c3cncc(OC)c3)cc1)N2 (stereo not drawn) [Compound 18, 3β-[4-(5′-Methoxypyridin-3-yl)-phenyl]nortropane-2β-Carboxylic Acid Methyl Ester]",5.80,,,150,8.41,6.23,,,
COC(=O)C1C(c2ccc(-c3cncnc3)cc2)CC2CCC1N2C (centres unmarked) [Compound 19],< 5.00,6.46,7.48,10.4,,,,,
COC(=O)C1C(c2ccc(-c3cnc4ccccc4c3)cc2)CC2CCC1N2C (centres unmarked) [Compound 20],< 5.52,7.22,7.70,3.0,,,,,
COC(=O)C1C(c2ccc(-c3cncc4ccccc34)cc2)CC2CCC1N2C (centres unmarked) [Compound 21],< 5.00,,,10,,< 4.52,,,
